For 9 molecules, ID50 results are on record in ChEMBL document CHEMBL1145646, “New anti-inflammatory ergostane-type ecdysteroids from the sclerotium of Polyporus umbellatus” (2008).

For the assay, the system named is Mus musculus. Put plainly: Inhibition of TPA-induced inflammation in mouse assessed per ear by edema assay. Format: functional.
With `CC(C)C(C)/C=C/[C@@H](C)[C@H]1CC[C@H]2C3=C[C@@H](O)[C@@]4(O)C[C@@H](O)CC[C@]4(C)[C@H]3CC[C@]12C` (some centres undefined), the ID50 was found to be 0.666 µmol/ear.

In the case of `COc1ccc2c(c1)c(CC(=O)O)c(C)n2C(=O)c1ccc(Cl)cc1` [INDOMETHACIN], the ID50 came out at 0.838 µmol/ear. The result for `CC(C)C(C)[C@H](O)[C@@H]1O[C@H]2C[C@@]3(O)C4=CC(=O)[C@@H]5C[C@@H](O)[C@@H](O)C[C@]5(C)[C@H]4CC[C@]3(C)[C@H]2[C@@]1(C)O` (some centres undefined) [POLYPOROID A] reads 0.531 µmol/ear. The result for `C[C@@H]1[C@H]([C@@H](O)[C@](C)(O)[C@H]2CC[C@@]3(O)C4=CC(=O)[C@@H]5C[C@@H](O)[C@@H](O)C[C@]5(C)[C@H]4CC[C@]23C)OC[C@H]1C` [POLYPOROID B] reads 0.682 µmol/ear; that for `CC(C)C(C)C[C@@H](O)[C@](C)(O)[C@H]1[C@@H](O)C[C@@]2(O)C3=CC(=O)[C@@H]4C[C@@H](O)[C@@H](O)C[C@]4(C)[C@H]3CC[C@]12C` (some centres undefined) [POLYPOROID C], 0.184 µmol/ear.

Molecule `CC(C)C(C)C[C@@H](O)[C@](C)(O)[C@H]1CC[C@@]2(O)C3=CC(=O)[C@@H]4C[C@@H](O)[C@@H](O)C[C@]4(C)[C@H]3CC[C@]12C` (some centres undefined) [POLYPORUSTERONE A] gave an ID50 of 0.141 µmol/ear.

`C=C(C[C@@H](O)[C@](C)(O)[C@H]1CC[C@@]2(O)C3=CC(=O)[C@@H]4C[C@@H](O)[C@@H](O)C[C@]4(C)[C@H]3CC[C@]12C)C(C)C` [POLYPORUSTERONE B] came in with an ID50 of 0.117 µmol/ear.

As to `CC(C)C(C)C1O[C@H]1[C@](C)(O)[C@H]1CC[C@@]2(O)C3=CC(=O)[C@@H]4C[C@@H](O)[C@@H](O)C[C@]4(C)[C@H]3CC[C@]12C` (some centres undefined) [POLYPORUSTERONE C], the ID50 was 0.289 µmol/ear. The result for `C=C(C[C@@H](O)[C@@H](C)[C@H]1CC[C@@]2(O)C3=CC(=O)[C@@H]4C[C@@H](O)[C@@H](O)C[C@]4(C)[C@H]3CC[C@]12C)C(C)C` [POLYPORUSTERONE G] reads 0.207 µmol/ear.
